The values below come from PMC8006142 (Journal of Medicinal Chemistry, 2021).

One series addresses T1, AM1 receptor (Homo sapiens, UniProt O60895+Q16602).
T1 construct: expressed in transfected cells; host or cells: GPCR/RAMP-overexpressing cells; the AM1 line itself is not described
Description: TR-FRET cAMP accumulation, AM1 receptor cross-screen. The format is cell-based. The settings on record: Table 2; read-out: pIC50 AM1 (converted). How it is done: (§1) The ability of the compounds to inhibit cAMP production induced by an EC50 concentration of the maximum agonist activation (information previously published[34]) in GPCR/RAMP-overexpressing cells (i.e., AM2, CGRP cells) was evaluated using cAMP accumulation assays. Each compound was tested at 8 full-log concentrations (10^–11–10^–5 M) including a negative control (blank). The total cAMP was measured using the TR-FRET LANCE cAMP detection kit (PerkinElmer, AD0264), as described previously.[34] Briefly, frozen cells ([…]) were thawed and prepared in warm stimulation buffer (1× HBSS, 5 mM N-(2-hydroxyethyl)piperazine-N′-ethanesulfonic acid (HEPES), 0.5 mM IBMX, and 0.1% bovine serum albumin (BSA)). Alexa Fluor conjugated anti-cAMP (1:100 concentration) was then added to the cell suspension, and cells were plated (2500 cells, 6 μL) in a 384-well white opaque microtiter plate (OptiPlates, PerkinElmer, 6007299). […] Subsequently, a 12 μL detection mix (Europium-Chelate streptavidin/biotinylated cAMP) was added to stop the reaction and induce cell lysis. TR-FRET was detected after an hour of incubation by an EnSight multimode Plate reader (PerkinElmer) at 320/340 nm excitation and 615/665 nm emission. Data were normalized to agonist only and blank (stimulation buffer only) wells as 0 and 100% cAMP inhibition, respectively.
The final DMSO concentration was below 0.5%, and this was kept consistent in all of the wells, including agonist alone and blank. The same methodology including the number of cells was used for all cell lines. […] No further constraints in any parameters of the curves were used.

The target in a further series is AM2 receptor (Homo sapiens, UniProt O60896+Q16602). Description: TR-FRET cAMP accumulation, inhibition of agonist-induced cAMP in AM2 receptor-overexpressing cells. The format is cell-based. As to conditions: supplementary CSV; read-out: pIC50 AM2R (converted). How it is done: as §1, with “respectively. […]” for “respectively.”
On the technique in general: Time-resolved FRET reads energy transfer from a long-lived donor to a nearby acceptor.

The next series addresses CGRP receptor (Homo sapiens, UniProt O60894+Q16602). Description: TR-FRET cAMP accumulation, inhibition of agonist-induced cAMP in CGRP receptor-overexpressing cells. Format: cell-based. As to conditions: supplementary CSV; read-out: pIC50 CGRPR (converted). How it is done:
as §1, with “respectively. […]” for “respectively.”

The next series deals with CGRP. Further details: method as in PMID 24900170, PMID 16161996. As to conditions: cited from earlier work.
Another series relates to MDA-MB-231 tumor. Description: Subcutaneous MDA-MB-231 xenograft in BALB/c nude mice. The format is in vivo. How it is done: The study was performed using 6–7 week old BALB/c nude female mice, with a weight range of 15–20 g. Animals were provided by Envigo Corporation (Cambridgeshire, U.K.) or Charles River Laboratories (Massachusetts) depending on availability. Each experiment started with 10 mice (experimental units) in each experimental/control group. Subsequent analysis (tumor growth and histology) was only performed in animals where tumors had established and were palpable within 3 days of implantation. This was in accordance with the power calculation performed to ensure robust statistical analysis by the University of Sheffield Statistical Service. The animals were housed in individually ventilated cages (with the appropriate bedding and flooring conditions) in environmentally controlled conditions with a 12 h light/dark cycles at ∼26 °C. Mice had access to an adequate amount of water and a 2018 Teklad Global 18% Protein Rodent Diet containing 1.01% calcium (Harlan Laboratories, U.K.). The day-to-day care of the animals was carried out by the technicians in the Biological Services (The University of Sheffield, U.K.). All scientific procedures on animals were carried under the U.K. Home Office Project Licenses (40/3499) and Procedure Individual Licenses.
Compounds were dissolved in DMSO (Sigma-Aldrich, D4540) and sonicated at 37 °C for 10 min. The appropriate volume of solvent (Kolliphor HS15 (1 part, grams), Kollisolv PEG E 400 (3 parts, mL), and PBS (6 parts, mL)) was then added to yield a 6% DMSO/94% solvent solution. These working stocks (8 mg/mL) were further sonicated at 37 °C for 10 min before storing at −20 °C. To make treatment aliquots, equal amounts of the working stock (or vehicle control) and solvent were mixed and sonicated at 37 °C for 10 min (4 mg/mL, equivalent to 20 mg/kg, 3% DMSO/97% solvent). Vehicle control and compounds were sonicated at 37 °C for 10 min prior to ip injections (200 μL per mouse).
Cells were prepared according to standard cell culture techniques. Cell pellets were resuspended in 50% PBS/50% Matrigel (Corning, 354234). Matrigel/PBS cell suspension, needles (25G), and syringes (1 mL) were kept on ice before and during tumor inoculation into mice. Cell suspension (100 μL, 5 × 10^6 cells) was injected subcutaneously into the left flank of 6–7 weeks old female immunodeficient nude athymic mice (BALB/c nude). Once the tumors became palpable (around 100 mm^3), mice were randomized into treatment groups. Mice were treated daily at the same time of the day with an ip injection of 20 mg/kg of compound or vehicle control (200 μL per mouse) until humane end point. […] Tumor size and mouse weights were measured twice a week. At the end of each study, the animals were euthanized following the appropriate procedures listed in the ASPA Act 1986. Vital organs and tumors were stored in 10% neutral-buffered formalin for further histological analysis. The primary experimental outcome was tumor volume. The percentage tumor volume was calculated by normalizing measured tumor volumes to the initial tumor volume prior to the start of treatment on day 5. Simple linear regression was done to compare the line of best fit between the growth curves. Blinding was not used for the in vivo studies.

The next series concerns MDA-MB-231 cells. The series is described as follows: Real-Time-Glo MT viability assay. The format is cell-based, human. The settings on record: 10 μM, daily treatment, after 3 days, versus vehicle-treated controls. How it is done: Cell viability in human breast cancer cells (MDA-MB-231) was quantified using Real-Time-Glo MT Cell Viability Assay (Promega, G9712) as previously described.[34] Cells (2000 cells) were seeded into 96-well white clear-bottom plates (Corning, 3903) in full serum media overnight before washing and changing to suboptimal media (RPMI + 5% FBS + 1% P/S) containing Real-Time-Glo reagents according to the Promega protocol. A baseline luminescence read (prior to treatment) was taken using an EnSight Multimode Plate Reader (PerkinElmer) after an hour of incubation at 37 °C. Cells were then treated with compounds or vehicle control (PBS + 0.05% DMSO) daily. Results were normalized to vehicle-treated controls as 100% viable (Graphpad Prism 7 and 8).

T1 sequence (Q16602 23-461): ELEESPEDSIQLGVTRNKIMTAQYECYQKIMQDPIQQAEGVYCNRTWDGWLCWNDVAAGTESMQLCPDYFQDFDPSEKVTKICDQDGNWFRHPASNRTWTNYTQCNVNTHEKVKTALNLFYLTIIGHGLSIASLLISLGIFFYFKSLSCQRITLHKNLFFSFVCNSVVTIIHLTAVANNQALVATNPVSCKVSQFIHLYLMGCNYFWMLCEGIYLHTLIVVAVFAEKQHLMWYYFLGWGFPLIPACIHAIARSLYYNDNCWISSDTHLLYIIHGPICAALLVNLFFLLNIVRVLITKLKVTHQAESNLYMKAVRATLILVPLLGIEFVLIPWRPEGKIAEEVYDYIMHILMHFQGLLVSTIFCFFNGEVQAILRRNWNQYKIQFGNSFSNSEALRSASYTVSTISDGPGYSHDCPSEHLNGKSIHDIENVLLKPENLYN
T1 sequence (O60895 43-175): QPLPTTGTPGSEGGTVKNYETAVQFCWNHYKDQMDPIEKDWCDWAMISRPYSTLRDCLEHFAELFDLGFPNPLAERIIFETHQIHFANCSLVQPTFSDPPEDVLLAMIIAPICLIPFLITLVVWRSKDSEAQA
Sequence of CGRP receptor (Q16602 23-461): as the sequence (Q16602 23-461) above
Sequence of CGRP receptor (O60894 27-148): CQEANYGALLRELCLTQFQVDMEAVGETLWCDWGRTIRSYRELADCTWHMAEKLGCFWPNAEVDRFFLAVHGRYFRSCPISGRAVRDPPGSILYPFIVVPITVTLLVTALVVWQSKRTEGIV
Sequence of AM2 receptor (Q16602 23-461): as the sequence (Q16602 23-461) above
Sequence of AM2 receptor (O60896 24-148): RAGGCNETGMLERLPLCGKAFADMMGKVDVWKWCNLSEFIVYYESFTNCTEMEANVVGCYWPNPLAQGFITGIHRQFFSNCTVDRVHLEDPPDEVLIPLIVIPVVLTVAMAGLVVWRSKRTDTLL

`CC(N)c1ccccc1CN(CC(=O)Nc1ccc2c(c1)CC1(C2)C(=O)Nc2ncccc21)C(=O)C(C)(C)C` (racemic) [(±)-29, N-(2-(1-Aminoethyl)benzyl)-N-(2-oxo-2-((2′-oxo-1,1′,2′,3-tetrahydrospiro[indene-2,3′-pyrrolo[2,3-b]pyridin]-5-yl)amino)ethyl)pivalamide]: the IC50 at AM1 receptor is over 10 µM.

Consider `CC(C)(C)C(=O)N(CC(=O)Nc1ccc2c(c1)CC1(C2)C(=O)Nc2ncccc21)Cc1ccccc1CNC1CC1` (stereo not shown) [Compound 26, N-(2-((Cyclopropylamino)methyl)benzyl)-N-(2-oxo-2-((2′-oxo-1,1′,2′,3-tetrahydrospiro[indene-2,3′-pyrrolo[2,3-b]pyridin]-5-yl)amino)ethyl)pivalamide], for which, on AM1 receptor, the IC50 is 3.16 µM.

As for `CC(C)(C)C(=O)N(CC(=O)Nc1ccc2c(c1)CC1(C2)C(=O)Nc2ncccc21)Cc1ccccn1` (stereo not shown) [Compound 5, N-(2-Oxo-2-((2′-oxo-1,1′,2′,3-tetrahydrospiro[indene-2,3′-pyrrolo[2,3-b]pyridin]-5-yl)amino)ethyl)-N-(pyridin-2-ylmethyl)pivalamide], at AM1 receptor, the IC50 is 50.1 µM.

`CC(C)(C)C(=O)N(CC(=O)Nc1ccc2c(c1)CC1(C2)C(=O)Nc2ncccc21)Cc1ccccc1CNCc1ncc[nH]1` (stereo not shown) [Compound 23, N-(2-((((1H-Imidazol-2-yl)methyl)amino)methyl)benzyl)-N-(2-oxo-2-((2′-oxo-1,1′,2′,3-tetrahydrospiro[indene-2,3′-pyrrolo[2,3-b]pyridine]-5-yl)amino)ethyl)pivalamide]: the IC50 was 251 nM on AM2 receptor and 3.98 nM at CGRP receptor.

In the case of `CC(C)(C)C(=O)N(CC(=O)Nc1ccc2c(c1)CC1(C2)C(=O)Nc2ncccc21)Cc1ccccc1CN` (stereo not shown) [Compound 12, N-(2-(Aminomethyl)benzyl)-N-(2-oxo-2-((2′-oxo-1,1′,2′,3-tetrahydrospiro[indene-2,3′-pyrrolo[2,3-b]pyridin]-5-yl)amino)ethyl)pivalamide], the IC50 at AM1 receptor was 7.94 µM.

In the case of `CC(C)(C)C(=O)N(CC(=O)Nc1ccc2c(c1)CC1(C2)C(=O)Nc2ncccc21)Cc1ccccc1CO` (stereo not shown) [Compound 13, N-(2-(Hydroxymethyl)benzyl)-N-(2-oxo-2-((2′-oxo-1,1′,2′,3-tetrahydrospiro[indene-2,3′-pyrrolo[2,3-b]pyridin]-5-yl)amino)ethyl)pivalamide], the IC50 at AM1 receptor was 1.26 µM.

Regarding `O=C(CN1C(=O)C2(CCCC2)NC[C@H]1c1cc(F)cc(F)c1)Nc1ccc2c(c1)C[C@@]1(C2)C(=O)Nc2ncccc21` [MK-3207], the CGRP potency in the series with CGRP was 0.12 nM.

Take `CC(C)(C)C(=O)N(CC(=O)Nc1ccc2c(c1)CC1(C2)C(=O)Nc2ncccc21)Cc1ccccc1C(N)=O` (stereo not shown) [Compound 15, 2-((N-(2-Oxo-2-((2′-oxo-1,1′,2′,3-tetrahydrospiro[indene-2,3′-pyrrolo[2,3-b]pyridin]-5-yl)amino)ethyl)pivalamido)methyl)benzamide]: the IC50 on AM1 receptor was 6.31 µM.

Turning to `CN1CCCC(CN(CC(=O)Nc2ccc3c(c2)CC2(C3)C(=O)Nc3ncccc32)C(=O)C(C)(C)C)C1` (racemic) [(±)-6, N-((1-Methylpiperidin-3-yl)methyl)-N-(2-oxo-2-((2′-oxo-1,1′,2′,3-tetrahydrospiro[indene-2,3′-pyrrolo[2,3-b]pyridin]-5-yl)amino)ethyl)pivalamide], the IC50 at AM1 receptor was over 10 µM.

As for `CC(C)(C)C(=O)N(CC(=O)Nc1ccc2c(c1)CC1(C2)C(=O)Nc2ncccc21)Cc1ccccc1CN1CCC1` (stereo not shown) [Compound 27, N-(2-(Azetidin-1-ylmethyl)benzyl)-N-(2-oxo-2-((2′-oxo-1,1′,2′,3-tetrahydrospiro[indene-2,3′-pyrrolo[2,3-b]pyridine]-5-yl)amino)ethyl)pivalamide], the IC50 at AM1 receptor is 2 µM.

Take `CNCc1ccccc1CN(CC(=O)Nc1ccc2c(c1)CC1(C2)C(=O)Nc2ncccc21)C(=O)C(C)(C)C` (stereo not shown) [Compound 25]: the tumor growth rates entry with MDA-MB-231 tumor (20 mg/kg ip daily, simple linear regression, p < 0.001) is recorded as “significantly reduced”. Further, in the series with MDA-MB-231 tumor (20 mg/kg ip once daily), the adverse effects result is reported as “No adverse effects were observed”, the “body weight compared with vehicle-treated mice” value is reported as “did not differ significantly” and the tolerability entry is “well tolerated”. The “decrease of breast cancer xenograft tumor growth” value with MDA-MB-231 tumor (20 mg/kg ip once daily, 4 weeks after treatment, versus vehicle) came out at 47%. Moreover, the “decrease of MDA-MB-231 viability” value in the series with MDA-MB-231 cells worked out at 55%. Further, at AM1 receptor, the IC50 was 2 µM.

On to `CC(C)(C)C(=O)N(CC(=O)Nc1ccc2c(c1)CC1(C2)C(=O)Nc2ncccc21)Cc1nccs1` (stereo not shown) [Compound 8, N-(2-Oxo-2-((2′-oxo-1,1′,2′,3-tetrahydrospiro[indene-2,3′-pyrrolo[2,3-b]pyridin]-5-yl)amino)ethyl)-N-(thiazol-2-ylmethyl)pivalamide], for which the IC50 at AM1 receptor is 25.1 µM.
